Entries after “also recorded” stand apart in the source; their conditions may differ.
Columns and labels:
KCNQ2-W236L/KCNQ3-W265L = KCNQ2-W236L/KCNQ3-W265L (Homo sapiens, UniProt O43525+O43526, W236L/W265L); test: TEVC of double-mutant WL/WL KCNQ2/3 channels; format: cell-based
Excerpt: (§1) cRNA transcripts encoding human KCNA1, KCNQ1, KCNQ2, KCNQ3, KCNQ4, or KCNQ5 were generated by in vitro transcription using the T7 polymerase message machine kit (Thermo Fisher Scientific), after vector linearization, from cDNA sub-cloned into plasmids incorporating X. laevis β-globin 5′ and 3′ UTRs flanking the coding region to enhance translation and cRNA stability. cRNA was quantified by spectrophotometry. Mutant cDNAs were generated by site-directed mutagenesis using a QuikChange kit according to manufacturer's protocol (Stratagene, San Diego, Calif.) and corresponding cRNAs prepared as above. Defolliculated stage V and VI X. laevis oocytes (Ecocyte Bioscience, Austin, Tex.) were injected with Kv channel a subunit cRNAs (10 ng total per oocyte). Oocytes were incubated at 16° C. in Barth's saline solution (Ecocyte) containing penicillin and streptomycin, with daily washing, for 3-5 days prior to two-electrode voltage-clamp (TEVC) recording.
TEVC recording was performed at room temperature with an OC-725C amplifier (Warner Instruments, Hamden, Conn.) and pClamp10.2 software (Molecular Devices, Sunnyvale, Calif.) 3-5 days after cRNA injection as described in the section above. Oocytes were placed in a small-volume oocyte bath (Warner) and viewed with a dissection microscope. Chemicals were sourced from Sigma. Bath solution was (in mM): 96 NaCl, 4 KCl, 1 MgCl2, 1 CaCl2. 10 HEPES (pH 7.6). […] Currents were recorded in response to pulses between −80 and +40 mV at 20 mV intervals, or a single pulse to +40 mV, from a holding potential of −80 mV, to yield current-voltage relationships, current magnitude, and for quantifying activation rate. […]
cRNA transcripts encoding human KCNQ2, KCNQ3, KCNQ4, KCNQ5 (Kv7.2-Kv7.5) were generated by in vitro transcription using the T7 polymerase mMessage mMachine kit (Thermo Fisher Scientific), after vector linearization, from cDNA sub-cloned into plasmids incorporating Xenopus laevis β-globin 5′ and 3′ UTRs flanking the coding region to enhance translation and cRNA stability. cRNA was quantified by spectrophotometry. […]

KCNQ2/3 [1] = target: T1, KCNQ2/3 (Homo sapiens, UniProt O43525+O43526); test: TEVC of heteromeric KCNQ2/3 channels expressed in Xenopus laevis oocytes; format: cell-based; settings: for effect on voltage dependence of KCNQ2/3 activation, screen of M. oppositifolius leaf compounds: 100 μM, MTX and palmitic acid 30 μM
Excerpt: as §1
TEVC recording was performed at room temperature with an OC-725C amplifier (Warner Instruments, Hamden, Conn.) and pClamp10.2 software (Molecular Devices, Sunnyvale, Calif.) 3-5 days after cRNA injection as described in the section above. Oocytes were placed in a small-volume oocyte bath (Warner) and viewed with a dissection microscope. Chemicals were sourced from Sigma. Bath solution was (in mM): 96 NaCl, 4 KCl, 1 MgCl2, 1 CaCl2. 10 HEPES (pH 7.6). […] MTX (DMSO), sorbic acid (ethanol), and glutaconic acid (molecular grade H2O) were stored at −20° C. as 1 M stocks. Oleamide was stored as a 1 mM stock in ethanol at 4° C. Palmitic acid was conjugated with bovine serum albumin as a 1 mM stock and stored at −20° C. All compounds were diluted to working concentrations each experimental day. All compounds were introduced to the recording bath via gravity perfusion at a constant flow of 1 ml/min for 3 min prior to recording. Pipettes were of 1-2 MΩ resistance when filled with 3 M KCl. Currents were recorded in response to pulses between −80 and +40 mV at 20 mV intervals, or a single pulse to +40 mV, from a holding potential of −80 mV, to yield current-voltage relationships, current magnitude, and for quantifying activation rate. TEVC data analysis was performed with Clampfit10.2 (Molecular Devices) and Graphpad Prism software (GraphPad, San Diego, Calif., USA); values are stated as mean±SEM. Normalized tail currents were plotted versus prepulse voltage and fitted with a single Boltzmann function: […]
cRNA transcripts encoding human KCNQ2, KCNQ3, KCNQ4, KCNQ5 (Kv7.2-Kv7.5) were generated by in vitro transcription using the T7 polymerase mMessage mMachine kit (Thermo Fisher Scientific), after vector linearization, from cDNA sub-cloned into plasmids incorporating Xenopus laevis β-globin 5′ and 3′ UTRs flanking the coding region to enhance translation and cRNA stability. cRNA was quantified by spectrophotometry. Mutant KCNQ2 and KCNQ3 cDNAs were generated with site-directed mutagenesis using a QuikChange kit according to the manufacturer's protocol (Stratagene, San Diego, Calif.) and corresponding cRNAs prepared as above.

KCNQ2 = KCNQ2 (Homo sapiens, UniProt O43526); test: TEVC of homomeric KCNQ2 expressed in Xenopus oocytes; format: cell-based; settings: Example 4; read-out: EC50, ΔV0.5act of KCNQ2
Excerpt: as §1
(§2) TEVC recording was performed at room temperature with an OC-725C amplifier (Warner Instruments, Hamden, Conn.) and pClamp10.2 software (Molecular Devices, Sunnyvale, Calif.) 3-5 days after cRNA injection as described in the section above. Oocytes were placed in a small-volume oocyte bath (Warner) and viewed with a dissection microscope. Chemicals were sourced from Sigma. Bath solution was (in mM): 96 NaCl, 4 KCl, 1 MgCl2, 1 CaCl2. 10 HEPES (pH 7.6). […] MTX (DMSO), sorbic acid (ethanol), and glutaconic acid (molecular grade H2O) were stored at −20° C. as 1 M stocks. Oleamide was stored as a 1 mM stock in ethanol at 4° C. Palmitic acid was conjugated with bovine serum albumin as a 1 mM stock and stored at −20° C. All compounds were diluted to working concentrations each experimental day. All compounds were introduced to the recording bath via gravity perfusion at a constant flow of 1 ml/min for 3 min prior to recording. Pipettes were of 1-2 MΩ resistance when filled with 3 M KCl. Currents were recorded in response to pulses between −80 and +40 mV at 20 mV intervals, or a single pulse to +40 mV, from a holding potential of −80 mV, to yield current-voltage relationships, current magnitude, and for quantifying activation rate. TEVC data analysis was performed with Clampfit10.2 (Molecular Devices) and Graphpad Prism software (GraphPad, San Diego, Calif., USA); values are stated as mean±SEM. Normalized tail currents were plotted versus prepulse voltage and fitted with a single Boltzmann function:
(§3) cRNA transcripts encoding human KCNQ2, KCNQ3, KCNQ4, KCNQ5 (Kv7.2-Kv7.5) were generated by in vitro transcription using the T7 polymerase mMessage mMachine kit (Thermo Fisher Scientific), after vector linearization, from cDNA sub-cloned into plasmids incorporating Xenopus laevis β-globin 5′ and 3′ UTRs flanking the coding region to enhance translation and cRNA stability. cRNA was quantified by spectrophotometry. Mutant KCNQ2 and KCNQ3 cDNAs were generated with site-directed mutagenesis using a QuikChange kit according to the manufacturer's protocol (Stratagene, San Diego, Calif.) and corresponding cRNAs prepared as above. Defolliculated stage V and VI Xenopus laevis oocytes (Ecocyte Bioscience, Austin, Tex.) were injected with KCNQ channel α subunit cRNAs (5-10 ng). The oocytes were incubated at 16° C. in Barth's saline solution (Ecocyte) containing penicillin and streptomycin, with daily washing, for 2-5 days prior to two-electrode voltage-clamp (TEVC) recording.
(§4) TEVC recording was performed at room temperature using a OC-725C amplifier (Warner Instruments, Hamden, Conn.) and pClamp8 software (Molecular Devices, Sunnyvale, Calif.) 2-5 days after cRNA injection as described in the section above. The oocytes were placed in a small-volume oocyte bath (Warner) and viewed with a dissection microscope. Unless otherwise stated, chemicals were sourced from Sigma. Bath solution was (in mM): 96 NaCl, 4 KCl, 1 MgCl2, 1 CaCl2, 10 HEPES (pH 7.6).

KCNQ3* (KCNQ3-A315T) = KCNQ3* (KCNQ3-A315T) (Homo sapiens, UniProt O43525, A315T); test: TEVC of homomeric KCNQ3* expressed in Xenopus oocytes; format: cell-based
Excerpt: as §1, §2, §3, §4

KCNQ4 = KCNQ4 (Homo sapiens, UniProt P56696); test: TEVC of homomeric KCNQ4 expressed in Xenopus oocytes; format: cell-based
Excerpt: as §1, §2, §3, §4

KCNQ1 = KCNQ1 (Homo sapiens, UniProt P51787); test: TEVC of homomeric KCNQ1 expressed in Xenopus oocytes; format: cell-based; settings: Example 4; read-out: EC50, ΔV0.5act of KCNQ1
Description: Oocytes were placed in a small-volume oocyte bath (Warner) and viewed with a dissection microscope. Chemicals were sourced from Sigma. Bath solution was (in mM): 96 NaCl, 4 KCl, 1 MgCl2, 1 CaCl2. 10 HEPES (pH 7.6). […] MTX (DMSO), sorbic acid (ethanol), and glutaconic acid (molecular grade H2O) were stored at −20° C. as 1 M stocks. Oleamide was stored as a 1 mM stock in ethanol at 4° C. Palmitic acid was conjugated with bovine serum albumin as a 1 mM stock and stored at −20° C. All compounds were diluted to working concentrations each experimental day. All compounds were introduced to the recording bath via gravity perfusion at a constant flow of 1 ml/min for 3 min prior to recording. Pipettes were of 1-2 MΩ resistance when filled with 3 M KCl. Currents were recorded in response to pulses between −80 and +40 mV at 20 mV intervals, or a single pulse to +40 mV, from a holding potential of −80 mV, to yield current-voltage relationships, current magnitude, and for quantifying activation rate. […]

KCNQ5 = KCNQ5 (Homo sapiens, UniProt Q9NR82); test: TEVC of homomeric KCNQ5 expressed in Xenopus oocytes; format: cell-based
Excerpt: as §1, §2, §3, §4

KCNQ2/3 [2] = target: T1, KCNQ2/3; settings: cited from earlier work
[3] = system: pentylene tetrazole-induced seizures; test: PTZ chemoconvulsant assay; format: in vivo, mouse
Excerpt: We compared anticonvulsant activities of test compounds in male C57BL/6 mice (Charles River) aged 2-3 months. Mice were housed and used according to the recommendations in the Guide for the Care and Use of Laboratory Animals of the National Institutes of Health (NIH Publication, 8th edition, 2011). The study protocol was approved by the Institutional Animal Care and Use Committee of University of California, Irvine, which confirmed that all relevant ethical regulations were adhered to. Chemicals were sourced from Sigma (St. Louis, Mo., USA). A pentylene tetrazole (PTZ) chemoconvulsant assay was used-. […] Following the PTZ injection, mice were caged individually and an observer (GWA) blinded to the drug used recorded, over 20 min, clonic and tonic seizure incidence, and seizure-related mortality.
We quantified the anticonvulsant activities of (E)-2-dodecenal and tridecanal in male C57BL/6 mice (Charles River, Wilmington, Mass.) aged 2-3 months. The mice were housed and used according to the recommendations in the Guide for the Care and Use of Laboratory Animals of the National Institutes of Health (NIH Publication, 8th edition, 2011). The study protocol was approved by the Institutional Animal Care and Use Committee of University of California, Irvine. The chemicals were sourced from Sigma (St. Louis, Mo., USA). We used a pentylene tetrazole (PTZ) chemoconvulsant assay as we previously described (30). We injected the mice intraperitoneally with (E)-2-dodecenal (2 or 20 mgkg^−1) (with or without 2.5 mgkg^−1 XE991) or tridecanal (20 mgkg^−1) solubilized in PBS, or vehicle control (PBS), and then 30 minutes later we injected mice intraperitoneally with 80 mgkg-PTZ. Following the PTZ injection, the mice were caged individually and an observer (GWA) blinded to the experimental condition timed the latency to first seizure.
We compared anticonvulsant activities of 3FMSG in male C57BL/6 mice (Charles River) aged 2-3 months. Mice were housed and used according to the recommendations in the Guide for the Care and Use of Laboratory Animals of the National Institutes of Health (NIH Publication, 8th edition, 2011). The study protocol was approved by the Institutional Animal Care and Use Committee of University of California, Irvine, which confirmed that all relevant ethical regulations were adhered to. Chemicals were sourced from Sigma (St. Louis, Mo., USA). We used a pentylene tetrazole (PTZ) chemoconvulsant assay as we previously described^27. Mice were injected intraperitoneally with 3FMSG (5 mg kg^−1) or vehicle control (PBS) and then 30 minutes later injected intraperitoneally with 80 mg kg^−1 PTZ. Following the PTZ injection, mice were caged individually and an observer (GWA) blinded to the drug used recorded seizure activity over 20 minutes.

Oc1ccccc1S [2-mercaptophenol]
effect on WL/WL KCNQ2/3 (in words) (KCNQ2-W236L/KCNQ3-W265L): insensitive | concentration from which KCNQ2/3 is inhibited (KCNQ2/3 [1]): ~100 µM | effect of co-applied compound (100 μM) on KCNQ2/3 activation by MTX (30 μM) or IVA (500 μM) (KCNQ2/3 [1]): did not alter | effect on KCNQ2/3 activity (in words) (KCNQ2/3 [1]): inhibits; also recorded: inhibitory at higher doses | effect on voltage dependence of KCNQ2/3 activation, screen of M. oppositifolius leaf compounds (KCNQ2/3 [1]): positive-shifted

NC(C(=O)O)c1ccc(F)cc1 (stereo not drawn) [4FPG, 4-(fluorophenyl)glycine]
EC50 (KCNQ2): 69 ± 31 nM | effect on KCNQ3* (in words) (KCNQ3* (KCNQ3-A315T)): no effects | EC50 (KCNQ4; Example 4, read-out: EC50, ΔV0.5act of KCNQ4): 49 ± 12 nM | EC50 (KCNQ1): 90 ± 20 nM | effect on KCNQ5 (in words) (KCNQ5): no effects | EC50 (KCNQ2/3 [1]; Example 4, read-out: EC50, shift in voltage dependence of KCNQ2/3 activation (ΔV0.5act)): 61 ± 42 nM

NCCCC(=O)O [GABA, γ-aminobutyric acid, reference compound]
effect on KCNQ4 (in words) (KCNQ4): unable to open

NCC(O)CC(=O)O (stereo not drawn) [GABOB, γ-Amino-β-hydroxybutyric acid]
effect of co-applied compound (100 μM) on KCNQ2/3 activation by MTX (30 μM) or IVA (500 μM) (KCNQ2/3 [1]): only partially diminishes; also recorded: highly effective at competing out

O=C(Nc1ccc(Cl)nc1)c1ccc(F)c(F)c1 [ICA-27243]
potency at opening KCNQ2/3 versus KCNQ4 (KCNQ2/3 [2]): > 20 fold

O=C(Nc1cnc(Cl)nc1)c1ccc(F)c(F)c1 [ICA-069673]
selectivity KCNQ2/3 versus KCNQ3/5 activation (KCNQ2/3 [2]): 20 fold

O=C1c2ccccc2C(Cc2ccncc2)(Cc2ccncc2)c2ccccc21 [XE991]
latency to first PTZ-induced seizure ([3]; XE991 2.5 mgkg−1 with (E)-2-dodecenal 20 mgkg−1): eliminated the protective effect | inhibition of activator-augmented KCNQ2/3 current (KCNQ2/3 [1]; after wash-in of MTX or gabapentin): rapidly inhibited; also recorded: completely inhibited

O=C(O)C=CCC(=O)O [glutaconic acid]
effect on voltage dependence of KCNQ2/3 activation, screen of M. oppositifolius leaf compounds (KCNQ2/3 [1]): negative-shifted

CCCCCCCC/C=C\CCCCCCCC(N)=O [oleamide]
effect on KCNQ2/3 activity (in words) (KCNQ2/3 [1]): slightly increased KCNQ2/3 currents at higher voltages

CCCCCCCCCCCCCCCC(=O)O [palmitic acid]
effect on voltage dependence of KCNQ2/3 activation, screen of M. oppositifolius leaf compounds (KCNQ2/3 [1]): negative-shifted

CC(C)C[C@H](CN)CC(=O)O [pregabalin]
concentration from which KCNQ2/3 is inhibited (KCNQ2/3 [1]): ≥ 10 µM | effect on KCNQ2/3 activity (in words) (KCNQ2/3 [1]): does not activate; also recorded: no augmenting effect | effect on KCNQ2/3 gating kinetics (KCNQ2/3 [1]): no effects | shift of membrane potential (EM) of KCNQ2/3-expressing oocytes (KCNQ2/3 [1]; unclamped oocytes): failed to shift

CCCCCCCCCCCCC=O [tridecanal, reference compound]
latency to first PTZ-induced seizure ([3]; 20 mgkg−1 i.p.): no effect | effect on KCNQ2/3 activity (in words) (KCNQ2/3 [1]): KCNQ2/3-inactive

CCCCC(=O)O [valeric acid]
KCNQ2/3 activation (previously found) (KCNQ2/3 [2]): inactive

Reference: patent US12268683B2, “Compounds and methods for synergistic activation of M channels” (THE REGENTS OF THE UNIVERSITY OF CALIFORNIA, priority 2018, dated 2025)
